Key:
[1] = cited from earlier work
sepsis induced in mice = details: cited from earlier work
[2] = system: white cells in fresh healthy whole blood; assay: NETs formation induced in fresh healthy whole blood, H3.1-nucleosome ELISA and Bioanalyzer electrophoresis of plasma; assay type: cell-based, human; details: 2 healthy volunteers
Excerpt: We collected whole blood samples from two healthy volunteers, in whom low levels of circulating NET material would be expected, in EDTA plasma blood collection tubes and in heparin plasma blood collection tubes. The two EDTA plasma blood collection tubes were centrifuged immediately to separate the cellular and plasma fractions to minimise contamination by large chromatin (including NET material) and the plasma was transferred to cryotubes and frozen. The two heparin plasma blood collection tubes were incubated at room temperature for 1 hour with gentle rotation of the tubes. The tubes were then centrifuged and the plasma was transferred to cryotubes and frozen.
The samples were assayed for nucleosomes containing histone isoform H3.1 (H3.1-nucleosomes) using an ELISA procedure in duplicate. In brief, 20 μl of sample were added to a microtiter well containing magnetic particles precoated with an anti-histone H3.1 antibody. The sample was incubated and the magnetic particles were isolated and washed. An anti-nucleosome antibody directed to bind to a conformational nucleosome epitope conjugated to horse radish peroxidase was added to the magnetic particles. The particles were incubated and then isolated and washed. The bound anti-nucleosome antibody was measured using a coloured substrate reaction. […]

[3] = single 25 mg/m^2 bolus intravenous dose

## COc1cccc2c1C(=O)c1c(O)c3c(c(O)c1C2=O)C[C@@](O)(C(=O)CO)C[C@@H]3O[C@H]1C[C@H](N)[C@H](O)[C@H](C)O1 [doxorubicin]
[1]; [3]
  serum concentration: 10000 ng/mL
  time serum level remains above 3 μg/ml: around 4 days

## COc1cccc2c1C(=O)c1c(O)c3c(c(O)c1C2=O)C[C@@](O)(C(=O)CO)C[C@@H]3O[C@H]1C[C@H](N)[C@@H](O)[C@H](C)O1 [epirubicin]
Sepsis induced in mice; lethal sepsis by cecal ligation and puncture, death in 100% of mice within 72 hours without treatment
  survival: 75%
Sepsis induced in mice; septic mice
  inflammation measured by circulating inflammatory biomarkers: reduction in inflammation

## DNase
[1]; in vivo, iv
  half-life: 3 to 4 h

## heparin
[2]; blood collection tubes incubated 1 hour at room temperature
  NET material level in plasma (H3.1-nucleosome ELISA): high
[2]; retention time approximately 110 seconds
  level of NET material in plasma (DNA fragment size, Bioanalyzer): high

From patent publication US20230204599A1, “TRIAGING METHOD USING CELL FREE NUCLEOSOME LEVELS” (Belgian Volition SRL (BE/BE), priority 2020, published 2023)
